Where a name gives a salt, the structure may show the parent alone.

The record followed here is article PMC8119466, “A screen of FDA-approved drugs identifies inhibitors of protein tyrosine phosphatase 4A3 (PTP4A3 or PRL-3)” (Scientific Reports, 2021).

Holding throughout (format): biochemical
Common to all, as to details: FDA-approved drug screen; activity compared to DMSO

The target in one test is T1, recombinant PRL-1 (Homo sapiens, UniProt Q93096).
T1 construct: 6xHis (N, cleaved yes); made in house; host or cells: E. coli One Shot BL21 Star
T1 sequence (Q93096 1-173): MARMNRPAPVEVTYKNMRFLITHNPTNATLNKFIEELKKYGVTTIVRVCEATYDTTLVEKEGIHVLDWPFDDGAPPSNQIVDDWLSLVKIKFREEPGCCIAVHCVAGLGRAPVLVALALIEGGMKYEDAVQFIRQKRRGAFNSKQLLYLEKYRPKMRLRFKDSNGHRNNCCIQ
The test can be described thus: In vitro phosphatase assay (DiFMUP hydrolysis), PRL-1. Note: test concentration or dose not given here.

The next test addresses T2, recombinant PRL-2 (Homo sapiens, UniProt Q12974).
T2 construct: 6xHis (N, cleaved yes); made in house; host or cells: E. coli One Shot BL21 Star
T2 sequence (Q12974 1-167): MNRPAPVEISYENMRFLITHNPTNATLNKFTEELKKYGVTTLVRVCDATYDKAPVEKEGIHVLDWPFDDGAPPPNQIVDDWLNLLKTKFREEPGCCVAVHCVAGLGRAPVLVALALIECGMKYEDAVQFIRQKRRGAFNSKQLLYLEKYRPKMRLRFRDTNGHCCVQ
The experiment in a line: In vitro phosphatase assay (DiFMUP hydrolysis), PRL-2.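 Note: PRL-2 activity read as DiFMUP hydrolysis after 20 min at room temperature with drug, enzyme first pre-reduced at 4 °C for 20 min.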

The target in a further test is T3, recombinant PRL-3 (Homo sapiens, UniProt O75365).
T3 construct: 6xHis (N, cleaved yes); made in house; host or cells: E. coli One Shot BL21 Star
T3 sequence (O75365 whole entry): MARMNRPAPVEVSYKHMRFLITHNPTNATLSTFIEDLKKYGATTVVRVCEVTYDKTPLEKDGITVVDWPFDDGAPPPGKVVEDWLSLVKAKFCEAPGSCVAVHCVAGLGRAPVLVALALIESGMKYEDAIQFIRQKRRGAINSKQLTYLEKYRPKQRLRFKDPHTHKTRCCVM
The experiment in a line: In vitro phosphatase assay (DiFMUP hydrolysis), PRL-3. Note: test concentration or dose not given here.

On to `Cc1ccc(-n2nccn2)c(C(=O)N2CCN(c3nc4cc(Cl)ccc4o3)CC[C@H]2C)c1` [Suvorexant (MK-4305)], for which the “% Phosphatase Activity (compared to DMSO) PRL-1” value at recombinant PRL-1 is on record as 86%. On recombinant PRL-2, the “% Phosphatase Activity (compared to DMSO) PRL-2” value was found to be 78%. Also, at recombinant PRL-3, the “% Phosphatase Activity (compared to DMSO) PRL-3” value is 89%.

Regarding `CNC(=O)c1ccc2cc([C@@]3(O)CCn4cncc43)ccc2c1` [TAK-700 (Orteronel)], the “% Phosphatase Activity (compared to DMSO) PRL-1” value at recombinant PRL-1 is recorded as 128%. In addition, the “% Phosphatase Activity (compared to DMSO) PRL-2” value at recombinant PRL-2 is given as 107%. Besides, the “% Phosphatase Activity (compared to DMSO) PRL-3” value on recombinant PRL-3 is listed as 87%.

In the case of `Cc1cnc(Nc2ccc(OCCN3CCCC3)cc2)nc1Nc1cccc(S(=O)(=O)NC(C)(C)C)c1` [TG101348 (SAR302503)], on recombinant PRL-1, the “% Phosphatase Activity (compared to DMSO) PRL-1” value is on record as 97%. Besides, on recombinant PRL-2, the “% Phosphatase Activity (compared to DMSO) PRL-2” value is 96%. Moreover, on recombinant PRL-3, the “% Phosphatase Activity (compared to DMSO) PRL-3” value came out at 95%.

On to `Cn1c(COP(=O)(NCCBr)NCCBr)cnc1[N+](=O)[O-]` [TH-302], for which the “% Phosphatase Activity (compared to DMSO) PRL-1” value on recombinant PRL-1 is 91%. For the same compound, the “% Phosphatase Activity (compared to DMSO) PRL-2” value on recombinant PRL-2 turned out to be 100%. The “% Phosphatase Activity (compared to DMSO) PRL-3” value on recombinant PRL-3 came out at 95%.

For `Cc1[nH]c(/C=C2\C(=O)Nc3ccccc32)c(C)c1CCC(=O)O` [TSU-68 (SU6668, Orantinib)], the “% Phosphatase Activity (compared to DMSO) PRL-1” value at recombinant PRL-1 is recorded as 75%. In addition, the “% Phosphatase Activity (compared to DMSO) PRL-2” value on recombinant PRL-2 amounted to 52%. For the same compound, the “% Phosphatase Activity (compared to DMSO) PRL-3” value on recombinant PRL-3 is given as 52%.

As to `C=CC[C@@H]1/C=C(\C)C[C@H](C)C[C@H](OC)[C@H]2O[C@@](O)(C(=O)C(=O)N3CCCC[C@H]3C(=O)O[C@H](/C(C)=C/[C@@H]3CC[C@@H](O)[C@H](OC)C3)[C@H](C)[C@@H](O)CC1=O)[C@H](C)C[C@@H]2OC` [Tacrolimus (FK506)], the “% Phosphatase Activity (compared to DMSO) PRL-1” value at recombinant PRL-1 was found to be 90%. Moreover, at recombinant PRL-2, the “% Phosphatase Activity (compared to DMSO) PRL-2” value stood at 78%. The “% Phosphatase Activity (compared to DMSO) PRL-3” value at recombinant PRL-3 turned out to be 94%.

Regarding `CN1CC(=O)N2[C@H](c3ccc4c(c3)OCO4)c3[nH]c4ccccc4c3C[C@@H]2C1=O` [Tadalafil], the “% Phosphatase Activity (compared to DMSO) PRL-1” value at recombinant PRL-1 was found to be 109%. Besides, at recombinant PRL-2, the “% Phosphatase Activity (compared to DMSO) PRL-2” value is 97%. Besides, the “% Phosphatase Activity (compared to DMSO) PRL-3” value on recombinant PRL-3 is on record as 82%.

On to `CN(C(=O)c1ccc(F)cc1C(F)(F)F)C1CCN(c2nnc(-c3ccnn3C)c3ccccc23)CC1` [Taladegib (LY2940680)], for which, on recombinant PRL-1, the “% Phosphatase Activity (compared to DMSO) PRL-1” value came to 91%. Besides, the “% Phosphatase Activity (compared to DMSO) PRL-2” value on recombinant PRL-2 was determined as 107%. Besides, at recombinant PRL-3, the “% Phosphatase Activity (compared to DMSO) PRL-3” value was 86%.

As to `CC1(C)CCC(C)(C)c2cc(NC(=O)c3ccc(C(=O)O)cc3)ccc21` [Tamibarotene], the “% Phosphatase Activity (compared to DMSO) PRL-1” value on recombinant PRL-1 came out at 93%. For the same compound, the “% Phosphatase Activity (compared to DMSO) PRL-2” value at recombinant PRL-2 is on record as 80%. At recombinant PRL-3, the “% Phosphatase Activity (compared to DMSO) PRL-3” value is given as 73%.

As for `CC/C(=C(\c1ccccc1)c1ccc(OCCN(C)C)cc1)c1ccccc1` [Tamoxifen Citrate], the “% Phosphatase Activity (compared to DMSO) PRL-1” value at recombinant PRL-1 is 84%. Further, the “% Phosphatase Activity (compared to DMSO) PRL-2” value at recombinant PRL-2 is 91%. Also, at recombinant PRL-3, the “% Phosphatase Activity (compared to DMSO) PRL-3” value worked out at 95%.

As for `CCOc1ccccc1OCCN[C@H](C)Cc1ccc(OC)c(S(N)(=O)=O)c1` [Tamsulosin], the “% Phosphatase Activity (compared to DMSO) PRL-1” value on recombinant PRL-1 is listed as 96%. Moreover, the “% Phosphatase Activity (compared to DMSO) PRL-2” value at recombinant PRL-2 is listed as 107%. Further, on recombinant PRL-3, the “% Phosphatase Activity (compared to DMSO) PRL-3” value turned out to be 83%.

Regarding `O=C(NS(=O)(=O)c1ccc(Br)s1)c1ccc(Cl)cc1Cl` [Tasisulam], on recombinant PRL-1, the “% Phosphatase Activity (compared to DMSO) PRL-1” value is recorded as 94%. For the same compound, the “% Phosphatase Activity (compared to DMSO) PRL-2” value at recombinant PRL-2 stood at 87%. Moreover, the “% Phosphatase Activity (compared to DMSO) PRL-3” value at recombinant PRL-3 turned out to be 99%.

For the compound `NCCS(=O)(=O)O` [Taurine], the “% Phosphatase Activity (compared to DMSO) PRL-1” value on recombinant PRL-1 is listed as 97%. Also, at recombinant PRL-2, the “% Phosphatase Activity (compared to DMSO) PRL-2” value worked out at 77%. In addition, at recombinant PRL-3, the “% Phosphatase Activity (compared to DMSO) PRL-3” value came out at 94%.

In the case of `CCOC(=O)c1ccc(C#Cc2ccc3c(c2)C(C)(C)CCS3)nc1` [Tazarotene], the “% Phosphatase Activity (compared to DMSO) PRL-1” value at recombinant PRL-1 came to 1414%. Further, at recombinant PRL-2, the “% Phosphatase Activity (compared to DMSO) PRL-2” value is reported as 1439%. Moreover, the “% Phosphatase Activity (compared to DMSO) PRL-3” value on recombinant PRL-3 was 148%.

As for `C[C@]1(Cn2ccnn2)[C@H](C(=O)O)N2C(=O)C[C@H]2S1(=O)=O` [Tazobactam], on recombinant PRL-1, the “% Phosphatase Activity (compared to DMSO) PRL-1” value was 102%. The “% Phosphatase Activity (compared to DMSO) PRL-2” value on recombinant PRL-2 worked out at 103%. Besides, the “% Phosphatase Activity (compared to DMSO) PRL-3” value at recombinant PRL-3 is 86%.

For the compound `Cn1nnc(-c2ccc(-c3ccc(N4C[C@H](COP(=O)(O)O)OC4=O)cc3F)cn2)n1` [Tedizolid Phosphate], the “% Phosphatase Activity (compared to DMSO) PRL-1” value at recombinant PRL-1 stood at 97%. For the same compound, on recombinant PRL-2, the “% Phosphatase Activity (compared to DMSO) PRL-2” value was 97%. For the same compound, the “% Phosphatase Activity (compared to DMSO) PRL-3” value at recombinant PRL-3 is on record as 87%.

In the case of `CCC[C@H](NC(=O)[C@@H]1[C@H]2CCC[C@H]2CN1C(=O)[C@@H](NC(=O)[C@@H](NC(=O)c1cnccn1)C1CCCCC1)C(C)(C)C)C(=O)C(=O)NC1CC1` [Telaprevir (VX-950)], the “% Phosphatase Activity (compared to DMSO) PRL-1” value on recombinant PRL-1 turned out to be 95%. Further, the “% Phosphatase Activity (compared to DMSO) PRL-2” value at recombinant PRL-2 was 104%. The “% Phosphatase Activity (compared to DMSO) PRL-3” value at recombinant PRL-3 stood at 92%.
